# Measured values taken from patent US10329334B2 (SANOFI, priority 2015, dated 2019).
# Target: T1, human lipocalin 2 (hNGAL) mutein SEQ ID NO: 35 (Homo sapiens, UniProt P80188, A60T/C107S/D97H/K145I/K154W/K93R/L123T/L56V/L90R/N85Q/Q48H/Q69G/R101D/R92I/S147R/S88D/T74A/W99Y/Y126Q/Y152I/Y72N)
# T1 construct: made in house; host or cells: E. coli
# Assay: SPR (Biacore T200), mutein SEQ ID NO: 35
# Format: binding
# Settings: 2 μM for all analytes
# Procedure: In a Surface Plasmon Resonance (SPR) based assay a Biacore T200 instrument (GE Healthcare) was used to measure the binding affinity of muteins to pyoverdine I succinyl, -succinamid, -α-ketoglutaryl with complexed iron ion or to pyoverdine II succinyl, -succinamid, -α-ketoglutaryl with complexed iron ion or to pyoverdine III succinyl, -succinamid, -α-ketoglutaryl with complexed iron ion. Muteins selected for binding to pyoverdines and negative control (SEQ ID NO: 64) were biotinylated for 2 h at room temperature applying an appropriate excess of EZ-Link NHS-PEG4-Biotin (Thermo, Cat#21329) followed by separation of non-reacted Biotin using a Zeba Spin Desalting Plate (Thermo, Cat#21329) according to the manufactures instructions.
# In the SPR affinity assay, biotinylated muteins and negative control were captured on a sensor chip CAP using the Biotin CAPture Kit (GE Healthcare): Sensor Chip CAP is pre-immobilized with an ssDNA oligo. Undiluted Biotin CAPture Reagent (streptavidin conjugated with the complementary ss-DNA oligo) was applied at a flow rate of 2 μl/min for 300 s. Subsequently, 1 μg/ml to 100 μg/mL of biotinylated muteins or negative control were applied for 300 s at a flow rate of 5 μl/min. The reference channel was loaded with Biotin CAPture Reagent only.
# Applying a flow rate of 30 μl/min, a single cycle or multi cycle kinetics approach was used with a sample contact time of 120-180 s and a dissociation time of 900-2400 s. […] After ligand immobilization, for analysis using single cycle kinetics all 4-5 concentrations of Pvd were applied consecutively in ascending order before the dissociation was monitored. For analysis using multi cycle kinetics 4 dilutions of Pvd were applied, each followed a dissociation phase. All measurements were performed at 25° C. […] Data were evaluated with Biacore T200 Evaluation software (V 1.0). Double referencing was used. A 1:1 Binding model was used to fit the raw data.
# T1 sequence (P80188 21-198 with the stated changes): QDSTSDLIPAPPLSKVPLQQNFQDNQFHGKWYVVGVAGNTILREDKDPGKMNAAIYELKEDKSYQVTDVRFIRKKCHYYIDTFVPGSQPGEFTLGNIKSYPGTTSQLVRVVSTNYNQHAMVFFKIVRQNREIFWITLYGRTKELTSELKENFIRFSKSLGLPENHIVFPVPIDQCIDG
row,SMILES,specificity and crossreactivity (binding)
1,"CN1[C@@H]([C@H]2CSC(c3ccccc3O)=N2)SC[C@H]1C(=O)O [Pyochelin, pyochelin]",absence of binding
2,"CC(=O)N(O)CCCCCNC(=O)CCC(=O)N(O)CCCCCNC(=O)CCC(=O)N(O)CCCCCN [Desferoxamin, desferoxamine, reference compound]",absence of binding
